Data reported in US12617752B2, “Rapidly metabolized lipid compound” (Beijing Jitai Life Sciences Ltd, priority 2023, dated 2026).

Tests used:
[1] = Particle size and PDI of lipid nanoparticles by dynamic light scattering; format: physicochemical; conditions: lipid nanoparticles with luciferase mRNA; ionizable lipid/cholesterol/DSPC/DMG-PEG2000 50/38.5/10/1.5 mol%
How it was run: (§1)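 LNPs of ionizable lipid/cholesterol/phospholipid/PEG-lipid (50/38.5/10/1.5 mol%, N/P 6) were formed by microfluidic mixing with mRNA in pH 4.5 acetate, then buffer-exchanged by ultrafiltration. Size and PDI were measured by DLS. Encapsulation came from RiboGreen fluorescence (485/528 nm) in TE pH 7.5, with and without 0.5% Triton at 37 °C for 30 min.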

[2] = Encapsulation efficiency of lipid nanoparticles (Quant-it RiboGreen RNA Assay); format: physicochemical; conditions: lipid nanoparticles with luciferase mRNA
How it was run: as §1

[3] = test system: C57BL/6 mice; assay: In vivo delivery of luciferase mRNA lipid nanoparticles in mice (bioluminescence imaging); conditions: intravenous, single dose 0.5 mg/kg luciferase mRNA
How it was run: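 Female C57BL/6 mice, 6-8 weeks old, received luciferase mRNA lipid nanoparticles as a single intravenous dose of 0.5 mg/kg mRNA. At 6 h, D-luciferin given intraperitoneally; 10 min later, mice were imaged under isoflurane anaesthesia. Values are group mean fluorescence intensity and total photon count.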

| SMILES | Particle size (nm) [1] [nm] | Particle-size distribution (PDI) [1] | Encapsulation efficiency (%) [2] [%] | Total photon count in vivo at 6 hours after administration (Total Flux) [3] |
| --- | --- | --- | --- | --- |
| CCCCCCCCCC(=O)OCC(C)(C)CCCCCN(CCCCO)CCCCCCCC(=O)OC(CCCCCCCCC)CCCCCCCCC [52b] | 105.97 | 0.06 | 90.84 | 1.01E+11 |
| CCCCCCCCC(=O)OCC(C)(C)CCCCCCN(CCO)CCCCCCC(=O)OCC(CCCCCCCC)CCCCCCCC [110b] | 133.93 | 0.21 | 85.48 | 1.36E+11 |
| CCCCCCCCCCC(=O)OCC(C)(C)CCCCCN(CCO)CCCCCCCC(=O)OC(CCCCCCCCC)CCCCCCCCC [16b] | 101.90 | 0.028 | 89.09 | 1.28E+11 |
| CCCCCCCCCC(=O)OCCCC(C)(C)CCCN(CCCCO)CCCCCCC(=O)OCC(CCCCCCCC)CCCCCCCC [84b] | 123.77 | 0.11 | 89.17 | 6.68E+10 |
| CCCCCCCCCCC(=O)OCC(C)(C)CCCCCN(CCCCO)CCCCCCCCC(=O)OCC(CCCCCCC)CCCCCCC [89b] | 122.20 | 0.08 | 84.88 | 5.51E+10 |
| CCCCCCCCCC(=O)OCCCC(C)(C)CCCN(CCCO)CCCCCCC(=O)OCC(CCCCCCCC)CCCCCCCC [82b] | 99.57 | 0.16 | 90.71 | 5.03E+10 |
| CCCCCCCCCC(=O)OCCC(C)(C)CCCCN(CCCCO)CCCCCCCC(=O)OCC(CCCCCCC)CCCCCCC [59b] | 127.23 | 0.12 | 80.27 | 1.04E+11 |
| CCCCCCCCCC(=O)OCCC(C)(C)CCCCCN(CCO)CCCCCCCCC(=O)OCC(CCCCCCC)CCCCCCC [107b] | 88.13 | 0.16 | 94.05 | 1.98E+11 |
| CCCCCCCCCOC(=O)CCCCC(C)(C)CCN(CCO)CCCCCC(=O)OCC(CCCCCCCCC)CCCCCCCCC [69a] | 107.20 | 0.34 | 96.65 | 7.41E+10 |
| CCCCCCCCCCOC(=O)CCCCCN(CCO)CCCCCCC(C)(C)C(=O)OC(CCCCCCC)CCCCCCC [23a] | 99.25 | 0.011 | 96.30 | 9.84E+10 |
| CCCCCCCCCOC(=O)C(C)(C)CCCCCCN(CCO)CCCCCCOC(=O)OCCCCC(CCCC)CCCC [43a] | 105.63 | 0.15 | 97.03 | 2.23E+10 |
| CCCCCCCCCOC(=O)OCCCCCCN(CCCO)CCCCCCC(C)(C)C(=O)OC(CCCCCCCC)CCCCCCCC [32a] | 129.00 | 0.10 | 83.51 | 1.24E+10 |
| CCCCCCCCCC(=O)OCC1(CCCCCN(CCCCO)CCCCCCOC(=O)OCC(CCCCCCCC)CCCCCCCC)CC1 [36b] | 112.50 | 0.19 | 96.10 | 3.84E+10 |
| CCCCCCCCC(=O)OCCC(C)(C)CCCCCN(CCO)CCCCCCC(=O)OCC(CCCCCCCC)CCCCCCCC [105b] | 89.73 | 0.16 | 94.38 | 9.24E+10 |
| CCCCCCCCCOC(=O)CCCCC(C)(C)CCN(CCO)CCCCCCOC(=O)OCC(CCCCCCC)CCCCCCC [47a] | 104.47 | 0.21 | 93.23 | 3.10E+10 |
| CCCCCCCC(CCCCCCC)COC(=O)CCCCC(C)(C)CCN(CCO)CCCCCCOC(=O)OCC(CCCCCCC)CCCCCCC [50a] | 78.03 | 0.12 | 98.67 | 2.86E+10 |
| CCCCCCCCCCC(=O)OCCCC(C)(C)CCCN(CCCCO)CCCCCCC(=O)OCC(CCCCCCCCC)CCCCCCCCC [115b] | 100.25 | 0.12 | 93.91 | 3.71E+10 |
| CCCCCCCCCC(=O)OCCCCCCCN(CCO)CCCCCCC(C)(C)C(=O)OC(CCCCCCCC)CCCCCCCC [6b] | 99.55 | 0.029 | 80.01 | 7.42E+10 |
| CCCCCCCCCC(=O)OCCCC(C)(C)CCCN(CCCCO)CCCCCCCCC(=O)OCC(CCCCCC)CCCCCC [113b] | 147.03 | 0.09 | 88.21 | 2.09E+10 |
| CCCCCCCCCOC(=O)OCCCCCCN(CCO)CCCCCCC(C)(C)C(=O)OCCCC(CCCCC)CCCCC [35a] | 126.63 | 0.22 | 95.00 | 3.01E+10 |
| CCCCCC/C=C\COC(=O)CCCCCCCN(CCO)CCCCCCC(C)(C)C(=O)OC(CCCCCCCC)CCCCCCCC [57a] | 79.17 | 0.17 | 95.41 | 3.42E+10 |
| CCCCCCCCCC(=O)OCC(C)(C)CCCCCN(CCO)CCCCCCCC(=O)OC(CCCCCCCCC)CCCCCCCCC [51b] | 91.96 | 0.12 | 95.92 | 7.60E+10 |
| CCCCCCCCCCOC(=O)CCCCC(C)(C)CCN(CCCO)CCCCCCCC(=O)OC(CCCCCCCCC)CCCCCCCCC [66a] | 105.77 | 0.11 | 92.88 | 9.31E+10 |
| CCCCCCCCCCCC(=O)OCC(C)(C)CCCCCN(CCCCO)CCCCCCCCC(=O)OCC(CCCCCCCC)CCCCCCCC [90b] | 109.57 | 0.08 | 91.21 | 4.72E+10 |
| CCCCCCCCCSC(=O)CCCCCCCN(CCO)CCCCCCC(C)(C)C(=O)OC(CCCCCCCC)CCCCCCCC [52a] | 79.40 | 0.09 | 93.30 | 2.58E+10 |
